Results on 14 compounds are retold here after patent US20200323203A1, “SYNERGISTIC PESTICIDAL COMPOSITIONS AND METHODS FOR DELIVERY OF ACTIVE INGREDIENTS” (0903608 B.C. Ltd., priority 2017, published 2020).

Converted amounts (≈) assume the structure as drawn. “And” between values parts separate entries of the source, which are not always exact repeats. Identical values can stand only once.

Data set [1] concerns Fusarium oxysporum. Briefly: Synergistic Growth Inhibition Assay (MIC / FIC index), Fusarium oxysporum. The data set is classed as cell-based. The following applies: individual compound alone. The method, then:
(§1) In some embodiments, the synergistic action between the pesticidal active ingredient, and the at least one C6-C10 (or alternatively C11 or C12) saturated or unsaturated aliphatic acid components of the pesticidal compositions according to embodiments of the present disclosure was tested using a Synergistic Growth Inhibition Assay, which is derived from and related to a checkerboard assay as is known in the art for testing of combinations of antimicrobial agents. In the Synergistic Growth Inhibition Assay used in accordance with some embodiments of the present disclosure, multiple dilutions of combinations of pesticidal active ingredient and at least one C6-C10 saturated or unsaturated aliphatic acid agents are tested in individual cells for inhibitory activity against a target pest or pathogenic organism. In one such embodiment, the combinations of pesticidal active ingredient and C6-C10 (or alternatively C11 or C12) saturated or unsaturated aliphatic acid agents may preferably be tested in decreasing concentrations. In a further such embodiment, the combinations of pesticidal active ingredient and C6-C10 (or alternatively C11 or C12) saturated or unsaturated aliphatic acid agents may be tested in increasing concentrations. These multiple combinations of the pesticidal active ingredient and at least one C6-C10 (or alternatively C11 or C12) saturated or unsaturated aliphatic acid agents may be prepared in 96-well microtiter plates. In one such embodiment, the Synergistic Growth Inhibition Assay then comprises rows which each contain progressively decreasing concentrations of the pesticidal active ingredient and one or more C6-C10 (or alternatively C11 or C12) saturated or unsaturated aliphatic acid agents to test for the MIC of the agents in combination at which growth of the target pest or pathogen is inhibited. Thus, each well of the microtiter plate is a unique combination of the two agents, at which inhibitory efficacy of the combination against the target pest or pathogen can be determined.
In one embodiment according to the present disclosure, for each row of microtiter cells in the Synergistic Growth Inhibition Assay, the FIC index is calculated from the lowest concentration of the pesticidal active ingredient and one or more C6-C10 saturated or unsaturated aliphatic acid agents necessary to inhibit growth of a target pest or pathogen. The FIC of each component is derived by dividing the concentration of the agent present in that well of the microtiter plate by the minimal inhibitory concentration (MIC) needed of that agent alone to inhibit growth of the target pest or pathogen. The FIC index is then the sum of these values for both agents in that well of the microtiter plate. The FIC index is calculated for each row as follows:
FICindex=MICa/MICA+MICb/MICB
Fractional inhibitory concentration indices may then used as measure of synergy. […] When the FIC index is equal to 1, the combination is additive.
Then, serial dilutions of these initial compositions in successive wells in the row of the microtiter plate were used to assay the pesticidal composition under the same conditions to determine the concentration of the composition combining the two agents corresponding to the microtiter well in which growth inhibition of the target pest or organism ceases. […]

Data set [2] in a line: Solubility / effective solubilized concentration in 10% DMSO/90% PDB by HPLC. Particulars: aqueous with cosolvent or surfactant or cyclodextrin, kinetic from dmso stock.
Data set [3] relates to Botrytis cinerea. The data set can be described thus: Synergistic Growth Inhibition Assay (MIC / FIC index), Botrytis cinerea. The data set is classed as cell-based. The method, then: as §1, with “In one such embodiment, the Synergistic Growth Inhibition Assay then comprises rows which each contain progressively decreasing concentrations of the pesticidal active ingredient and one or more C6-C10 (or alternatively C11 or C12) saturated or unsaturated aliphatic acid agents to test for the MIC of the agents in combination at which growth of the target pest or pathogen is inhibited.” left out
(§2) In one embodiment according to the present disclosure, for each row of microtiter cells in the Synergistic Growth Inhibition Assay, the FIC index is calculated from the lowest concentration of the pesticidal active ingredient and one or more C6-C10 saturated or unsaturated aliphatic acid agents necessary to inhibit growth of a target pest or pathogen. […] The FIC index is calculated for each row as follows: […]

Data set [4] has as its system Sclerotinia sclerotiorum. The data set can be described thus: Synergistic Growth Inhibition Assay (MIC / FIC index), Sclerotinia sclerotiorum. The data set is classed as cell-based. The method, then: as §1, with “In one such embodiment, the Synergistic Growth Inhibition Assay then comprises rows which each contain progressively decreasing concentrations of the pesticidal active ingredient and one or more C6-C10 (or alternatively C11 or C12) saturated or unsaturated aliphatic acid agents to test for the MIC of the agents in combination at which growth of the target pest or pathogen is inhibited.” left out
as §2

Data set [5] in a line: physchem. Particulars: aqueous with cosolvent or surfactant or cyclodextrin, kinetic from dmso stock.
The mark [6] stands for this setting: 10% DMSO/90% potato dextrose broth (PDB).
[7] abbreviates: effective solubilized concentration of working stock solution, DMSO stock diluted 10-fold in PDB, verified by HPLC.
Where [8] appears, read: solubility, in 10% DMSO/90% PDB, HPLC.

For `CCCCCC(=O)O` [Hexanoic acid, hexanoic acid], the “MIC (A) / MIC (B) of the compound used alone” value (shortened to “MIC (A) / MIC (B)”) in data set [1] (incubation period of 48 hours) is recorded as 0.1562 mg/mL. In turn, `CCCC1COC(Cn2cncn2)(c2ccc(Cl)cc2Cl)O1` (centres unmarked) [Propiconazole] returned a solubility in data set [2] (setting [6]) of 89 µg/mL (≈ 260 µM). For `N#Cc1c[nH]cc1-c1cccc2c1OC(F)(F)O2` [Fludioxonil, fludioxonil], the solubility was determined as 21 µg/mL (≈ 84.6 µM) in data set [2] (setting [7]) and 15.4 µg/mL (≈ 62 µM) in data set [2] (setting [8]). Turning to `CCCCCCCCCCCC(=O)O` [Dodecanoic acid, dodecanoic acid], the “MIC (B)” value came out at 0.05 mg/mL in data set [3] (Compound B alone, incubation 48 hours) and 0.05 mg/mL in data set [4] (Compound B alone, incubation 7 days). In data set [2] (setting [7]), `COCC(=O)N(c1c(C)cccc1C)C(C)C(=O)OC` (centres unmarked) [Metalaxyl] showed a solubility of 316 µg/mL (≈ 1130 µM). As for `CC(C)(C)C(O)(CCc1ccc(Cl)cc1)Cn1cncn1` (centres unmarked) [Tebuconazole], the solubility in data set [2] (setting [6]) worked out at 450 µg/mL (≈ 1460 µM).

For `N#Cc1c(Cl)c(Cl)c(Cl)c(C#N)c1Cl` [Chlorothalonil], in data set [2] (setting [7]), the concentration in solution (solubility) was 2 µg/mL (≈ 7.52 µM).

As to `CO/C=C(/C(=O)OC)c1ccccc1Oc1cc(Oc2ccccc2C#N)ncn1` [Azoxystrobin], the “MIC (A) / MIC (B)” value was 0.0375 mg/mL and 0.075 mg/mL in data set [3] (individual compound alone, incubation period of 48 hours); 0.075 mg/mL and 0.15 mg/mL in data set [1] (incubation period of 48 hours); 0.15 mg/mL in data set [4] (individual compound alone, incubation period of 7 days). Turning to `CCCCCCCCCC(=O)[O-].[K+]` [Decanoic acid, potassium salt, decanoic acid, potassium salt], the “MIC (A) / MIC (B)” value in data set [1] (24 hour incubation) worked out at 0.07812 mg/mL. As for `Fc1ccc([C@]2(Cn3cncn3)O[C@H]2c2ccccc2Cl)cc1` (racemic) [Epoxiconazole], the solubility in data set [5] worked out at 30 µg/mL (≈ 91 µM). On to `CCCCCCCCCC(=O)O` [Decanoic acid, decanoic acid], for which the minimum inhibitory concentration (MIC) in data set [3] (Botrytis cinerea, 96 h, Compound B alone, incubation 4 days) was 500 µg/mL. In data set [1] (24 hour incubation), the “MIC (A) / MIC (B)” value was 0.25 mg/mL. With `C/C=C(/C)C(=O)O[C@H]1C[C@@H](OC(C)=O)[C@@]2(C)CO[C@H]3[C@H]4O[C@@H]5C[C@@H](c6ccoc6)C(C)=C5[C@@]4(C)[C@H](CC(=O)OC)[C@]1(C)[C@@H]32` [Salannin], the MIC in data set [4] (Sclerotinia sclerotiorum, […], Compound A alone, incubation 7 days) worked out at 500 µg/mL. For the compound `C/C=C/C=C/C(=O)[O-].[K+]` [(2E,4E)-2,4-hexadienoic acid, potassium salt], the “MIC (A) / MIC (B)” value in data set [1] (24 hour incubation) was determined as 0.625 mg/mL. Regarding `COC(=O)N(OC)c1ccccc1COc1ccn(-c2ccc(Cl)cc2)n1` [Pyraclostrobin, pyraclostrobin], the results for the solubility in data set [2] (setting [7]) and in data set [2] (setting [8]) were 15 µg/mL (≈ 38.7 µM) and 15.4 µg/mL (≈ 39.7 µM), respectively.
